{
  "source": "patent US5376371A",
  "about": "“Compositions for treating fat deposits in humans” (Indena S.p.A., priority 1989, dated 1994)",
  "note": "pIC50: −log10 of the molar value.",
  "data": [
    {"molecular_target": "phosphodiesterase", "assay": "Phosphodiesterase inhibition, cyclic GMP substrate", "format": "biochemical", "conditions": "1 μM substrate; read-out: I50 Cyclic GMP", "protocol": "(§1) The determination of the phosphodiesterase activity was carried out according to the method of Beretz et al. (Experientia, 34,1054,1977). The method consists in measuring (3H) products resulting from incubation of (3H)-c-AMP with the phosphodiesterase preparation and with an excess of […]. An anion exchange resin was used in a batch process to remove the residual substrate. The inibition of PDE by flavonoids was studied in experiments in which the concentration of c-AMP was held constant at 1 μM.\n(§2) Assays were performed with 1 μM substrate, I50 was calculated as described above.", "values": [
      {"compound": "O=c1cc(-c2ccc(O)c(-c3c(O)cc(O)c4c(=O)cc(-c5ccc(O)cc5)oc34)c2)oc2cc(O)cc(O)c12", "note": "[Amentoflavone, amentoflavone]", "pIC50": 6.24},
      {"compound": "O=C(O)c1cc(=O)c2c(OCC(O)COc3cccc4oc(C(=O)O)cc(=O)c34)cccc2o1", "note": "[Cromoglycate Na, reference compound]", "pIC50": 3.63},
      {"compound": "COc1ccc(Cc2nccc3cc(OC)c(OC)cc23)cc1OC", "note": "[Papaverine, reference compound]", "pIC50": 4.91},
      {"compound": "ginkgonetine", "pIC50": 6.31}
    ]},
    {"tested_on": "phosphodiesterase", "assay": "not given", "conditions": "stated as known; cited from earlier work", "values": [
      {"compound": "O=c1cc(-c2ccc(O)c(-c3c(O)cc(O)c4c(=O)cc(-c5ccc(O)cc5)oc34)c2)oc2cc(O)cc(O)c12", "note": "[Amentoflavone, amentoflavone]", "inhibition of phosphodiesterase": "powerful inhibitor of phosphodiesterase"}
    ]},
    {"molecular_target": "phosphodiesterase", "assay": "Phosphodiesterase inhibition, cyclic AMP substrate", "format": "biochemical", "conditions": "1 μM substrate; read-out: I50 Cyclic AMP", "protocol": "as §1, §2", "values": [
      {"compound": "O=c1cc(-c2ccc(O)c(-c3c(O)cc(O)c4c(=O)cc(-c5ccc(O)cc5)oc34)c2)oc2cc(O)cc(O)c12", "note": "[Amentoflavone, amentoflavone]", "pIC50": 6.19},
      {"compound": "O=C(O)c1cc(=O)c2c(OCC(O)COc3cccc4oc(C(=O)O)cc(=O)c34)cccc2o1", "note": "[Cromoglycate Na, reference compound]", "pIC50": 2.70},
      {"compound": "COc1ccc(Cc2nccc3cc(OC)c(OC)cc23)cc1OC", "note": "[Papaverine, reference compound]", "pIC50": 5.30},
      {"compound": "ginkgonetine", "pIC50": 6.06}
    ]}
  ]
}
